We go through nine compounds from US20140113877A1, “NOVEL 3,4,4A,10B-TETRAHYDRO-1H-THIOPYRANO[4,3-C] ISOQUINOLINE COMPOUNDS” (Takeda GmbH, priority 2011, published 2014).

Structures are written as SMILES. A value given as a limit tells only on which side of the number the result lay.

The target of test [1] is T1, PDE4B1 (Homo sapiens, UniProt Q07343).
T1 construct: made in house; host or cells: SF21 insect cells (baculovirus; virus prepared in SF9 cells)
Description: Inhibition of PDE4B1 activity (SPA, [3H]cAMP). Format: biochemical. As to conditions: recombinant PDE4B1, 0.5 μM cAMP; binned: below 8 / between 8 and 9; read-out: PDE4B1 inhibitory values measured as −logIC50 (converted). As for the experimental part: The PDE4B1 (GB no. L20966) was a gift of Prof. M. Conti (Stanford University, USA). It was amplified from the original plasmid (pCMV5) via PCR with primers Rb18 (5′-[…]-3′) and Rb10 (5′-[…]-3′) and cloned into the pCR-Bac vector (Invitrogen, Groningen, NL).
The recombinant baculovirus was prepared by means of homologous recombination in SF9 insect cells. The expression plasmids were cotransfected with Baculo-Gold DNA (Pharmingen, Hamburg) using a standard protocol (Pharmingen, Hamburg). Wt virus-free recombinant virus supernatants were selected using plaque assay methods. After that, high-titre virus supernatants were prepared by amplifying 3 times. PDE4B1 was expressed in SF21 cells by infecting 2×10^6 cells/ml with an MOI (multiplicity of infection) between 1 and 10 in the serum-free SF900 medium (GIBCO Life Technologies, Karlsruhe, Germany). The cells were cultured at 28° C. for 48-72 hours, after which they were pelleted for 5-10 min at 1000×g and 4° C.
The SF21 insect cells were resuspended, at a concentration of approx. 10^7 cells/ml, in ice-cold (4° C.) homogenization buffer (20 mM Tris, pH 8.2, containing the following additions: 140 mM NaCl, 3.8 mM KCl, 1 mM EGTA, 1 mM MgCl2, 10 mM β-mercaptoethanol, 2 mM benzamidine, 0.4 mM Pefablock, 10 μM leupeptin, 10 μM pepstatin A, 5 μM trypsin inhibitor) and disrupted by ultrasonication. The homogenate was then centrifuged for 10 min at 1000×g and the supernatant was stored at −80° C. until subsequent use (see below). The protein content was determined by the Bradford method (BioRad, Munich) using BSA (Bovine serum albumin) as the standard.
PDE4B1 activities were measured in a 96-well platform using SPA (scintillation proximity assay) yttrium silicate beads (RPNQ1050 from GE Healthcare). In a first step the PDE activity operated hydrolysis of either [^3H] cAMP (substrate) into [^3H] 5′AMP. In a second step substrate and product were distinguished following addition of SPA yttrium silicate beads. Indeed, in the presence of zinc sulphate the linear [^3H] […] Close proximity of bound [^3H] […] The test volume was 100 μl and finally contained 20 mM Tris buffer (pH 7.4), 0.1 mg/ml of BSA, 5 mM Mg^2+, 0.5 μM cAMP (including about 50,000 cpm of [3H]cAMP) as substrate, 1 μl of the respective substance dilution in DMSO and sufficient recombinant PDE (1000×g supernatant, see above) to ensure that 10-20% of the cAMP was converted under the said experimental conditions. […] After a preincubation of 5 min at 37° C., the reaction was commenced by adding the substrate (cAMP) and the assays were incubated for a further 15 min. Reactions were terminated by adding SPA beads (50 μl). In agreement with the manufacturer's instructions, the SPA beads had previously been resuspended in water, but were then diluted 1:3 (v/v) in water. This diluted solution further contained 3 mM IBMX (isobutylmethylxanthine) to ensure a complete block of PDE activity. Once the beads were sedimented (>30 min), the MTP's (microtiter plate) were analyzed in commercially available luminescence detection devices. The corresponding IC50 values of the compounds for inhibition of PDE4B1 activity were determined from the concentration-effect curves by means of non-linear regression.
For the following compounds PDE4B1 inhibitory values [measured as −logIC50 (mol/l)] below 8 and between 8 and 9 have been determined. The numbers of the compounds correspond to the numbers of the examples.

In test [2] the target is T2, human PDE5 (Homo sapiens, UniProt O76074).
T2 construct: from tissue; host or cells: human platelets from fresh donor blood (platelet lysate)
Description: Inhibition of PDE5 activity (SPA, [3H]cGMP, platelet lysate). The conditions noted are these: 0.5 μM cGMP, binned: below 8 / between 8 and 9, read-out: PDE5 inhibitory values measured as −logIC50 (converted). Format: biochemical. As for the experimental part:
As a source for human PDE5, platelets were used. For that purpose, 150 ml fresh blood from human donors anticoagulated with citrate [final concentration 0.3% (w/v)] was centrifuged at 200 g for 10 min to obtain the so-called platelet-rich-plasma (PRP) as a supernatant. 1/10 volume of ACD solution (85 mM Na3-citrate, 111 mM D-glucose, 71 mM citric acid, pH 4.4) was added to 9/10 volume of PRP. After centrifugation (1,400 g, 10 min) the cell pellet was resuspended in 3 ml homogenization buffer (NaCl 140 mM, KCl 3.8 mM, EGTA (ethylene glycol tetraacetic acid) 1 mM, MgCl2 1 mM, Tris-HCl 20 mM, beta-mercaptoethanol 1 mM, pH 8.2) plus protease-inhibitor mix resulting in final concentrations of 0.5 mM Pefablock (Roche), 10 μM Leupeptin, 5 μM Trypsine inhibitor, 2 mM Benzamidin and 10 μM Pepstatin A. The suspension was sonicated and thereafter centrifuged for 15 min at 10,000 g. The resulting supernatant (platelet lysate) was used for enzymatic assays.
PDE5 activities were measured in a 96-well platform using SPA (scintillation proximity assay) yttrium silicate beads (RPNQ1050 from GE Healthcare). In a first step the PDE activity operated hydrolysis of either [^3H] cGMP (substrate) into [^3H] 5′GMP. In a second step substrate and product were distinguished following addition of SPA yttrium silicate beads. Indeed, in the presence of zinc sulphate the linear [^3H] […] Close proximity of bound [^3H] […] The test volume was 100 μl and contained 20 mM Tris buffer (pH 7.4), 0.1 mg of BSA (bovine serum albumin)/ml, 5 mM Mg^2+, 1 μM motapizone (PDE3 Inhibitor), 10 nM PDE2 inhibitor 2-(3,4-dimethoxybenzyl)-7-[(1R,2R)-2-hydroxy-1-(2-phenylethyl)propyl]-5-methylimidazo[5,1-f][1,2,4]triazin-4(3H)-one, 0.5 μM cGMP (cyclic guanosine monophosphate) (including about 50,000 cpm of [3H]cGMP as a tracer) (substrate), 1 μl of the respective compound dilution in dimethylsulfoxide (DMSO) and sufficient PDE5-containing platelet lysat (10,000×g supernatant, see above) to ensure that 10-20% of the cGMP was converted under the said experimental conditions. […] After a preincubation of 5 min at 37° C., the reaction was commenced by adding the substrate (cGMP) and the assay was incubated for a further 15 min. The reaction was terminated by adding SPA beads (50 μl). In agreement with the manufacturer's instructions, the SPA beads had previously been resuspended in water, but were then diluted 1:3 (v/v) in water. This diluted solution also contained 3 mM 8-methoxymethyl-3-isobutyl-1-methylxanthine (IBMX) to ensure a complete block of PDE activity. Once the beads were sedimented (>30 min), the MTP's were analyzed in commercially available luminescence detection devices. The corresponding IC50 values of the compounds for inhibition of PDE activity were determined from the concentration-effect curves by means of non-linear regression.
For the following compounds PDE5 inhibitory values [measured as −logIC50 (mol/l)] below 8 and between 8 and 9 have been determined. The numbers of the compounds correspond to the numbers of the examples.

T1 sequence (Q07343 whole entry): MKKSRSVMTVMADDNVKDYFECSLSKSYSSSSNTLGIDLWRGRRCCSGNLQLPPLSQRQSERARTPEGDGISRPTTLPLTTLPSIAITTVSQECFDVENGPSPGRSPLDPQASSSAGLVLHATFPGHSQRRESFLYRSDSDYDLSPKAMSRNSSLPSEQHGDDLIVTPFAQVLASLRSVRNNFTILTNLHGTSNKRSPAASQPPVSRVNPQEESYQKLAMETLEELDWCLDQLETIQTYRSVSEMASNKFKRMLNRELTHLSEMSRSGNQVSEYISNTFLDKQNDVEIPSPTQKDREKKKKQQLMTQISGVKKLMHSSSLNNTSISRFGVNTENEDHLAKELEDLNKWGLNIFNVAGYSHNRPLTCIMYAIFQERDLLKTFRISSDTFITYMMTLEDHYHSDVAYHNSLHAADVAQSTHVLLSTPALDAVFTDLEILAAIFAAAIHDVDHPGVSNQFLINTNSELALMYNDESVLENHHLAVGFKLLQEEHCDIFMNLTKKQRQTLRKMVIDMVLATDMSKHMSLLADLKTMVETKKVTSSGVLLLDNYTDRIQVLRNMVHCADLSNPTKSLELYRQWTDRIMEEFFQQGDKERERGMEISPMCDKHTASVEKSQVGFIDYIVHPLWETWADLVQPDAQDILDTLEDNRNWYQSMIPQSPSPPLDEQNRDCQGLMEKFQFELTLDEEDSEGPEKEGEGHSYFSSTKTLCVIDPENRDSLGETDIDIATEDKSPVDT

Regarding `CCOc1cc2c(cc1OC)C(c1ccc(C(=O)N3CCC(n4c(=O)c5sc(-c6ccc(F)cc6OC)cc5n(Cc5ccccc5)c4=O)CC3)cc1)=N[C@@H]1CCSC[C@H]21` [Example 17, 1-benzyl-3-[1-({4-[(4aR,10bR)-9-ethoxy-8-methoxy-3,4,4a,10b-tetrahydro-1H-thiopyrano[4,3-c]isoquinolin-6-yl]phenyl}carbonyl)piperidin-4-yl]-6-(4-fluoro-2-methoxyphenyl)thieno[3,2-d]pyrimidine-2,4(1H,3H)-dione], the results for the IC50 in test [1] and in test [2] were 1 to 10 nM and > 10 nM, respectively.
Take `CCOc1cc2c(cc1OC)C(c1ccc(C(=O)N3CCC(n4c(=O)c5sc(-c6ccc(F)cc6)cc5n(Cc5ccc(OC)c(F)c5)c4=O)CC3)cc1)=N[C@@H]1CCSC[C@H]21` [Example 13, 3-[1-({4-[(4aR,10bR)-9-ethoxy-8-methoxy-3,4,4a,10b-tetrahydro-1H-thiopyrano[4,3-c]isoquinolin-6-yl]phenyl}carbonyl)piperidin-4-yl]-1-(3-fluoro-4-methoxybenzyl)-6-(4-fluorophenyl)thieno[3,2-d]pyrimidine-2,4(1H,3H)-dione]: the IC50 in test [1] and in test [2] was 1 to 10 nM in each case.
Regarding `CCOc1cc2c(cc1OC)C(c1ccc(C(=O)N3CCC(n4c(=O)c5sc(-c6ccccc6)cc5n(Cc5cc(OC)c(OC)cc5F)c4=O)CC3)cc1)=N[C@@H]1CCSC[C@H]21` [Example 5, 3-[1-({4-[(4aR,10bR)-9-ethoxy-8-methoxy-3,4,4a,10b-tetrahydro-1H-thiopyrano[4,3-c]isoquinolin-6-yl]phenyl}carbonyl)piperidin-4-yl]-1-(2-fluoro-4,5-dimethoxybenzyl)-6-phenylthieno[3,2-d]pyrimidine-2,4(1H,3H)-dione], the IC50 in test [1] and in test [2] was 1 to 10 nM throughout.
In the case of `CCOc1cc2c(cc1OC)C(c1ccc(C(=O)N3CCC(n4c(=O)c5sc(-c6ccc(F)cc6OC)cc5n(Cc5ccc(OC)c(F)c5)c4=O)CC3)cc1)=N[C@@H]1CCSC[C@H]21` [Example 9, 3-[1-({4-[(4aR,10bR)-9-ethoxy-8-methoxy-3,4,4a,10b-tetrahydro-1H-thiopyrano[4,3-c]isoquinolin-6-yl]phenyl}carbonyl)piperidin-4-yl]-1-(3-fluoro-4-methoxybenzyl)-6-(4-fluoro-2-methoxyphenyl)thieno[3,2-d]pyrimidine-2,4(1H,3H)-dione], the IC50 in test [1] and in test [2] was 1 to 10 nM throughout.
As to `CCOc1cc2c(cc1OC)C(c1cccc(C(=O)N3CCC(n4c(=O)c5sc(-c6ccccc6)cc5n(Cc5cc(F)c(OC)c(F)c5)c4=O)CC3)c1)=N[C@@H]1CCSC[C@H]21` [Example 21, 1-(3,5-difluoro-4-methoxybenzyl)-3-[1-({3-[(4aR,10bR)-9-ethoxy-8-methoxy-3,4,4a,10b-tetrahydro-1H-thiopyrano[4,3-c]isoquinolin-6-yl]phenyl}carbonyl)piperidin-4-yl]-6-phenylthieno[3,2-d]pyrimidine-2,4(1H,3H)-dione], the values for the IC50 in test [1] and in test [2] were > 10 nM and 1 to 10 nM, respectively.
For the compound `CCOc1cc2c(cc1OC)C(c1ccc(C(=O)N3CCC(n4c(=O)c5sc(-c6cc(OC)ccc6OC)cc5n(Cc5ccc(OC)c(F)c5)c4=O)CC3)cc1)=N[C@@H]1CCSC[C@H]21` [Example 11, 6-(2,5-dimethoxyphenyl)-3-[1-({4-[(4aR,10bR)-9-ethoxy-8-methoxy-3,4,4a,10b-tetrahydro-1H-thiopyrano[4,3-c]isoquinolin-6-yl]phenyl}carbonyl)piperidin-4-yl]-1-(3-fluoro-4-methoxybenzyl)thieno[3,2-d]pyrimidine-2,4(1H,3H)-dione], the IC50 in test [1] and in test [2] was 1 to 10 nM in each case.
`CCOc1cc2c(cc1OC)C(c1ccc(C(=O)N3CCC(n4c(=O)c5sc(-c6ccc(F)cc6OC)cc5n(Cc5cc(F)c(OC)c(F)c5)c4=O)CC3)cc1)=N[C@@H]1CCSC[C@H]21` [Example 14, 1-(3,5-difluoro-4-methoxybenzyl)-3-[1-({4-[(4aR,10bR)-9-ethoxy-8-methoxy-3,4,4a,10b-tetrahydro-1H-thiopyrano[4,3-c]isoquinolin-6-yl]phenyl}carbonyl)piperidin-4-yl]-6-(4-fluoro-2-methoxyphenyl)thieno[3,2-d]pyrimidine-2,4(1H,3H)-dione]: the IC50 was > 10 nM in test [1] and 1 to 10 nM in test [2].
In the same order, the values of `CCOc1cc2c(cc1OC)C(c1ccc(C(=O)N3CCC(n4c(=O)c5sc(-c6ccc(F)cc6OC)cc5n(Cc5ccc(C)c(F)c5)c4=O)CC3)cc1)=N[C@@H]1CCSC[C@H]21` [Example 16, 3-[1-({4-[(4aR,10bR)-9-ethoxy-8-methoxy-3,4,4a,10b-tetrahydro-1H-thiopyrano[4,3-c]isoquinolin-6-yl]phenyl}carbonyl)piperidin-4-yl]-6-(4-fluoro-2-methoxyphenyl)-1-(3-fluoro-4-methylbenzyl)thieno[3,2-d]pyrimidine-2,4(1H,3H)-dione] are 1 to 10 nM and 1 to 10 nM.
With `CCOc1cc2c(cc1OC)C(c1ccc(C(=O)N3CCC(n4c(=O)c5sc(-c6ccccc6)cc5n(Cc5ccccc5)c4=O)CC3)cc1)=N[C@@H]1CCSC[C@H]21` [Example 7, 1-benzyl-3-[1-({4-[(4aR,10bR)-9-ethoxy-8-methoxy-3,4,4a,10b-tetrahydro-1H-thiopyrano[4,3-c]isoquinolin-6-yl]phenyl}carbonyl)piperidin-4-yl]-6-phenylthieno[3,2-d]pyrimidine-2,4(1H,3H)-dione], the IC50 in test [1] and in test [2] was 1 to 10 nM in each case.
